The text below walks through data of US5643784A, “Indan derivatives” (H, Lundbeck A/S, priority 1990, dated 1997).

The target in one test is T1, 5-HT2 receptors (Rattus norvegicus, UniProt P14842).
T1 construct: cortical tissue is dissected and weighed; from tissue; host or cells: cortex of male Wistar rats, crude membranes
Description: Inhibition of 3H-ketanserin binding to 5-HT2 receptors in rat cortex in vitro. Conditions: for IC50: 3H-Ketanserin 0.5 nM, rat cortex, 37° C., 30 min, read-out: Receptor Binding, IC50 5-HT2 3H-Ket. Here is the method:
Method in Hyttel, Pharmacology & Toxicology, 61, 126-129, 1987.
Male Wistar (Mol:Wist) rats (125-250 g) are sacrificed and cortical tissue is dissected and weighed. The tissue is homogenized (Ultra Turrax, 10 sec.) in 10 ml of ice-cold 50 mM tris buffer pH 7.7 (at 25° C.). The centrifuge glassware used in this step has been rinsed by sonication for 10 min. in ethanol. The homogenate is centrifuged twice at 20,000 g for 10 min. at 4° C. with rehomogenization of the pellet in 10 ml ice-cold buffer. The final pellet is homogenized in 500 vol (w/v) ice-cold buffer.
Incubation tubes kept on ice in triplicate receive 100 μl of drug solution in water (or water for total binding) and 2000 μl of tissue suspension (final tissue content corresponds to 4 mg original tissue). […] After incubation for 30 min. the samples are filtered under vacuum (0-50 mBar) through Whatman GF/F filters (25 mm). The tubes are rinsed with 5 ml ice-cold buffer which are then poured on the filters. Thereafter, the filters are washed with 2×5 ml of buffer. The filters are placed in counting vials and 4 ml of appropriate scintillation fluid (e.g. Picofluor™15) are added. After shaking for 1 h and storage 2 hrs in the dark the content of radioactivity is determined by liquid scintillation counting. Specific binding is obtained by subtracting the nonspecific binding in the presence of 1 μM mianserin.
(§1) For determination of the inhibition of binding five concentrations of drugs covering 3 decades are used.
The IC50 value is determined as the concentration at which the binding is 50% of the total binding in control samples minus the nonspecific binding in the presence of 1 μM mianserin.

The next test concerns the target T2, dopamine D-2 receptors (Rattus norvegicus, UniProt P61169).
T2 construct: striatal tissue is dissected and weighed; from tissue; host or cells: corpus striatum of male Wistar rats, crude membranes
Kind of test: Inhibition of 3H-spiperone binding to dopamine D-2 receptors in rat corpus striatum in vitro. To be noted: for IC50: 3H-spiperone 0.5 nM, rat corpus striatum, 37° C., 10 min, read-out: Receptor Binding, IC50 DA D-2 3H-Spi. Here is the method:
INHIBITION OF ^3 H-SPIPERONE BINDING TO DOPAMINE D-2 RECEPTORS IN RAT CORPUS STRIATUM IN VITRO
By this method the inhibition by drugs of the binding of ^3 H-spiperone (0.5 nM) to dopamine D-2 receptors in membranes from rat corpus striatum is determined in vitro.
Male Wistar (Mol:Wistar) rats (125-250 g) are sacrificed and striatal tissue is dissected and weighed. The tissue is homogenized (Ultra Turrax, 10 sec.) in 10 ml of ice-cold 50 mM K-phosphate buffer pH 7.4 (at 25° C.). The homogenate is centrifuged twice at 20,000 g for 10 min. at 4° C. with rehomogenization of the pellet in 10 ml ice-cold buffer. The final pellet is homogenized in 1300 vol (w/v) ice-cold buffer.
Incubation tubes kept on ice in triplicate receive 100 μl of drug solution in water (or water for total binding) and 4000 μl of tissue suspension (final tissue content corresponds to 3.08 mg original tissue). The binding experimental is initiated by addition of 100 μl of ^3 H-spiperone (final concentration 0.5 nM) and by placing the tubes in a 37° C. water bath. After incubation for 10 min. the samples are filtered under vacuum (0-50 mBar) through Whatman GF/F filters (25 mm). The tubes are rinsed with 5 ml ice-cold buffer which are then poured on the filters. Thereafter, the filters are washed with 2×5 ml of buffer. The filters are placed in counting vials and 4 ml of appropriate scintillation fluid (e.g. Picofluor ™15) are added. After shaking for 1 h and storage 2 hrs in the dark the content of radioactivity is determined by liquid scintillation counting. Specific binding is obtained by subtracting the nonspecific binding in the presence of 10 μM of 6,7-ADTN.
as §1
^3 H-Spiperone=[phenyl-4-^3 H]-spiperone from Amersham International plc. England, specific activity 15-25 Ci/mmol.

The next test has as its target α1 adrenoceptors. Description: Inhibition of 3H-prazosin binding to α1 adrenoceptors in rat brain in vitro. To be noted: for IC50: 3H-Prazosin 0.25 nM, rat brain, 25° C., 20 min, read-out: Receptor Binding, IC50 α1 3H-Praz. On the procedure:
INHIBITION OF ^3 H-PRAZOSIN BINDING TO α1 ADRENOCEPTORS IN RAT BRAIN IN VITRO
Method and results in Hyttel & Larsen, J. Neurochem, 44, 1615-1622, 1985; Skarsfeldt & Hyttel, Eur. J. Pharmacol. 125, 323-340, 1986.
Male Wistar (Mol:Wist) rats (125-200 g) are sacrificed and brain tissue is dissected and weighed. The tissue is homogenized (Ultra Turrax, 10 sec.) in 10 ml of ice-cold […] Tris buffer pH 7,7 (at 25° C.). The homogenate is centrifuged twice at 20,000 g for 10 min. at 4° C. with rehomogenization of the pellet in 10 ml ice-cold buffer. The final pellet is homogenized in 400 vol (w/v) ice-cold buffer.
Incubation tubes kept on ice in triplicate receive 100 μl of drug solution in water (or water for total binding) and 4000μl of tissue suspension (final tissue content corresponds to 10 mg original tissue). The binding experiment is initiated by addition of 100 μl of ^3 H-Prazosin (final concentration 0.25 nM) and by placing the tubes in a 25° C. water bath. After incubation for 20 min. the samples are filtered under vacuum (0-50 mBar) through Whatman GF/F filters (25 mm). The tubes are rinsed with 5 ml ice-cold buffer which then are poured on the filters. Thereafter, the filters are washed with 5 ml of buffer. The filters are placed in counting vials and 4 ml of appropriate scintillation fluid (e.g. Picofluor™15) are added. After shaking for 1 h and storage 2 hrs in the dark the content of radioactivity is determined by liquid scintillation counting. Specific binding is obtained by subtracting the nonspecific binding in the presence of 1 μM of Prazosin.
as §1
The measured cpm are plotted against drug concentration on semilogarithmic paper and the best fitting S-shaped curve is drawn. The IC50 value is determined as the concentration at which the binding is 50% of the total binding in control samples minus the nonspecific binding in the presence of 1 μM of Prazosin.
^3 H-Prazosin=[furoyl-5-^3 H]-Prazosin from New England Nuclear, specific activity approximately 20 Ci/mmol.

T2 sequence (P61169 whole entry): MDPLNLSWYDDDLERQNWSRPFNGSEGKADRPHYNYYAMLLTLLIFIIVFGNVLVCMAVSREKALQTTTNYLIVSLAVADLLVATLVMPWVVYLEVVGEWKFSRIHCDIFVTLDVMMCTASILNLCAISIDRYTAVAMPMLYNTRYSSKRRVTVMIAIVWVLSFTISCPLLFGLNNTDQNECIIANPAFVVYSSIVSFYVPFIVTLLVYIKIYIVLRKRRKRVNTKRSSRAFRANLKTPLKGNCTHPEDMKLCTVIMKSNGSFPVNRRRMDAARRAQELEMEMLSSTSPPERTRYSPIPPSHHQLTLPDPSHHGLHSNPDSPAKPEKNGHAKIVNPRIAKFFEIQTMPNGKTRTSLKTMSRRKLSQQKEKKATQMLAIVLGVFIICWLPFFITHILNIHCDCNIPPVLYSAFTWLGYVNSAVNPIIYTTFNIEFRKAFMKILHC
T1 sequence (P14842 whole entry): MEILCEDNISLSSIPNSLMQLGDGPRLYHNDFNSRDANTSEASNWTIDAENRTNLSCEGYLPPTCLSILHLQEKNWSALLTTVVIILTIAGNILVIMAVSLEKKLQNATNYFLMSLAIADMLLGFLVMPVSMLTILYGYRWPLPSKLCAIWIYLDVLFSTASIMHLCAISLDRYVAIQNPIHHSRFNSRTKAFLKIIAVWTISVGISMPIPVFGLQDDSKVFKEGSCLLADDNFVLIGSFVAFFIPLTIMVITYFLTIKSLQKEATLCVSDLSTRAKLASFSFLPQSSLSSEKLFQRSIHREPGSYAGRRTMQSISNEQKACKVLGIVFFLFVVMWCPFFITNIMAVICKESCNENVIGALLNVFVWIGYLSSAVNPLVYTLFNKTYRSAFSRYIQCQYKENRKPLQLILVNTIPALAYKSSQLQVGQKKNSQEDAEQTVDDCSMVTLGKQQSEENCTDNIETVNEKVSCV

On to `Cc1ccc2c(c1)[C@@H](c1ccc(F)cc1)C[C@@H]2N1CCN(CCO)CC1` (relative stereo) [Compound 8, Trans-4-[3-(4-fluorophenyl)-5-methyl-2,3-dihydro-1H-inden-1-yl]-1-piperazine ethanol], for which the IC50 on 5-HT2 receptors was 12 nM; on dopamine D-2 receptors, 1000 nM; at α1 adrenoceptors it was 270 nM.
The matching figures for `CC(C)N1CCN(CCN2CCN([C@@H]3C[C@@H](c4cccc(F)c4)c4cc(Cl)ccc43)CC2)C1=O` (relative stereo) [Compound 28, Trans-1-[2-[4-[5-chloro-3-(3-fluorophenyl)-2,3-dihydro-1H-inden-1-yl]piperazin-1-yl]ethyl]-3-isopropyl-2-imidazolidinone]: 26 nM, 490 nM and 970 nM.
Consider `O=C1NCCN1CCN1CCN([C@@H]2C[C@@H](c3ccc(F)cc3)c3ccc(Cl)cc32)CC1` (relative stereo) [Compound 41, reference compound], for which the IC50 at dopamine D-2 receptors amounted to 17 nM; at α1 adrenoceptors, 3.1 nM.
Regarding `O=C1NCCCN1CCN1CCN([C@@H]2C[C@@H](c3ccc(F)cc3)c3cc(F)ccc32)CC1` (single isomer, unassigned) [(-)-33, (-)-Trans-1-[2-[4-[5-fluoro-3-(4-fluorophenyl)-2,3-dihydro-1H-inden-1-yl]piperazin-1-yl]ethyl]-tetrahydro-2(1H)-pyrimidinone], the IC50 turned out to be 57 nM on 5-HT2 receptors and 4600 nM at dopamine D-2 receptors.
For the compound `OCCN1CCN([C@@H]2C[C@@H](c3ccc(F)cc3)c3cc(Cl)ccc32)CC1` (relative stereo) [Compound 3, Trans-4-[5-chloro-3-(4-fluorophenyl)-2,3-dihydro-1H-inden-1-yl)-1-piperazine-ethanol], the IC50 was found to be 25 nM on 5-HT2 receptors, 2200 nM on dopamine D-2 receptors and 230 nM at α1 adrenoceptors.
Taken in the same sequence, the figures for `Cc1cc([C@@H]2C[C@@H](N3CCN(CCN4CCNC4=O)CC3)c3ccc(Cl)cc32)cs1` (relative stereo) [Compound 7, Trans-1-[2-[4-[5-chloro-3-(2-methyl-4-thienyl)-2,3-dihydro-1H-inden-1-yl]piperazine-1-yl]ethyl]-2-imidazolidinone] were 7.9 nM, 2800 nM and 240 nM.
The matching figures for `CC(C)N1CCN(CCN2CCN([C@@H]3C[C@@H](c4ccccc4)c4cc(Cl)ccc43)CC2)C1=O` (relative stereo) [Compound 20, Trans-1-[2-[4-[5-chloro-3-phenyl-2,3-dihydro-1H-inden-1-yl]piperazin-1-yl]ethyl]-3-isopropyl-2-imidazolidinone]: 9.9 nM, 750 nM and 510 nM.
Taken in the same sequence, the figures for `CC(C)N1CCN(CCN2CCN([C@@H]3C[C@@H](c4ccc(F)cc4)c4cc(Cl)ccc43)CC2)C1=S` (relative stereo) [Compound 36, Trans-1-[2-[4-[5-chloro-3-(4-fluorophenyl)-2,3-dihydro-1-H-inden-1-yl]piperazin-1-yl]ethyl]-3-isopropyl-2-imidazolidinthione] were 3.6 nM, 260 nM and 69 nM.
Consider `Fc1ccc([C@@H]2C[C@@H](N3CCNCC3)c3ccc(Cl)cc32)cc1` (relative stereo) [Compound 10, Trans-1-[5-chloro-3-(4-fluorophenyl)-2,3-dihydro-1H-inden-1-yl]piperazine], for which the IC50 was determined as 11 nM at 5-HT2 receptors, 2500 nM at dopamine D-2 receptors and 840 nM on α1 adrenoceptors.
Taken in the same sequence, the figures for `CC(C)N1CCN(CCN2CCN([C@@H]3C[C@@H](c4ccc(F)cc4)c4cc(Br)ccc43)CC2)C1=O` (relative stereo) [Compound 24, Trans-1-[2-[4-[5-bromo-3-(4-fluorophenyl)-2,3-dihydro-1H-inden-1-yl]piperazin-1-yl]ethyl]-3-isopropyl-2-imidazolidinone] were 6.4 nM, 240 nM and 270 nM.
With `Fc1ccc([C@H]2C[C@H](N3CCNCC3)c3ccc(Cl)cc32)cc1` (single isomer, unassigned) [(+)-10], the IC50 at 5-HT2 receptors was 3300 nM; at dopamine D-2 receptors, 28000 nM.
As for `O=C1NCCN1CCN1CCN([C@H]2C[C@H](c3ccc(F)cc3)c3cc(C(F)(F)F)ccc32)CC1` (single isomer, unassigned) [(+)-1], the IC50 was determined as 2 nM at 5-HT2 receptors, 290 nM at dopamine D-2 receptors and 330 nM at α1 adrenoceptors.
The matching figures for `O=C1N(CCN2CCN([C@@H]3C[C@@H](c4ccc(F)cc4)c4cc(Cl)ccc43)CC2)CCN1c1ccccc1` (relative stereo) [Compound 17, Trans-1-[2-[4-[5-chloro-3-(4-fluorophenyl)-2,3-dihydro-1H-inden-1-yl]piperazin-1-yl]ethyl]-3-phenyl-2-imidazolidinone]: 44 nM, 300 nM and 310 nM.
The matching figures for `Fc1ccc([C@@H]2C[C@@H](N3CCN(CCN4CCCC4=S)CC3)c3ccc(Cl)cc32)cc1` (relative stereo) [Compound 38]: 5.3 nM, 290 nM and 260 nM.
Regarding `OCCN1CCN([C@@H]2C[C@@H](c3ccc(F)cc3)c3ccc(C(F)(F)F)cc32)CC1` (racemic) [Tefludazine, reference compound], at 5-HT2 receptors, the “affinity to 5-HT2 receptors (in words)” value was “high affinity to all three receptor types” and the IC50 is 4.6 nM. Moreover, on dopamine D-2 receptors, the “affinity to D-2 receptors (in words)” value was “high affinity to all three receptor types” and the IC50 was 10 nM. In the test with α1 adrenoceptors, the “affinity to α1 adrenoceptors (in words)” value is “high affinity to all three receptor types” and the IC50 was 17 nM.
Take `O=C1NCCN1CCN1CCN([C@@H]2C[C@@H](c3ccc(F)cc3)c3ccc(C(F)(F)F)cc32)CC1` (relative stereo) [Compound 39, reference compound]: the results for the IC50 at dopamine D-2 receptors and on α1 adrenoceptors were 21 nM and 8.3 nM, respectively.
